# Species on record: Rattus norvegicus
# Assay: Open TG-GATES - Regimen: Single
# Format: toxicity, organism-based, Sprague-Dawley
# Set-up: regimen Single, gender Male, age 6 weeks
# Conditions: in vivo, po, 0 mg/kg, route gavage, dose level Control; for APTT / Bas / Eos / Fbg / Hb / Ht / Lym / MCH / MCHC / MCV / Mono / Neu / PT / Plat / RBC / Ret / WBC: tissue Blood; for KIDNEY_L / KIDNEY_R / KIDNEY_TOTAL: tissue Kidney; for LIVER: tissue Liver; for A/G / ALP / ALT / AST / BUN / CRE / Ca / Cl / DBIL / GLC / IP / K / LDH / Na / PL / RALB / TBIL / TC / TG / TP / gamma-GTP: tissue Plasma
compound,measurement,setting,value
Cc1ccc(C)c(OCCCC(C)(C)C(=O)O)c1 [GEMFIBROZIL],TERMINAL_BW,3 h,223.7 g
same,APTT,3 h,16.9 s
same,Bas,3 h,0%
same,Eos,3 h,0.6%
same,Fbg,3 h,276.4 mg/dL
same,Hb,3 h,14 g/dL
same,Ht,3 h,40.2%
same,Lym,3 h,81.2%
same,MCH,3 h,22.6 pg
same,MCHC,3 h,34.9%
same,MCV,3 h,64.7 fL
same,Mono,3 h,2.8%
same,Neu,3 h,14.6%
same,PT,3 h,12.3 s
same,Plat,3 h,124.4 x10_4/uL
same,RBC,3 h,621.6 x10_4/ul
same,Ret,3 h,8%
same,WBC,3 h,76.9 x10_2/uL
same,KIDNEY_L,3 h,1 g
same,KIDNEY_R,3 h,0.9 g
same,KIDNEY_TOTAL,3 h,1.9 g
same,LIVER,3 h,9.8 g
same,A/G,3 h,0.9
same,ALP,3 h,1456 IU/L
same,ALT,3 h,45.2 IU/L
same,AST,3 h,71.2 IU/L
same,BUN,3 h,12.6 mg/dL
same,CRE,3 h,0.2 mg/dL
same,Ca,3 h,11.3 mg/dL
same,Cl,3 h,105 meq/L
same,DBIL,3 h,0.046 mg/dL
same,GLC,3 h,180.6 mg/dL
same,IP,3 h,10.4 mg/dL
same,K,3 h,4.2 meq/L
same,LDH,3 h,74 IU/L
same,Na,3 h,140.2 meq/L
same,PL,3 h,179.2 mg/dL
same,RALB,3 h,2.6 g/dL
same,TBIL,3 h,0.052 mg/dL
same,TC,3 h,86.4 mg/dL
same,TG,3 h,155.8 mg/dL
same,TP,3 h,5.6 g/dL
same,gamma-GTP,3 h,1 IU/L
same,TERMINAL_BW,6 h,221.6 g
same,APTT,6 h,16.7 s
same,Bas,6 h,0%
same,Eos,6 h,0.8%
same,Fbg,6 h,299 mg/dL
same,Hb,6 h,13.9 g/dL
same,Ht,6 h,40.6%
same,Lym,6 h,75.4%
same,MCH,6 h,21.4 pg
same,MCHC,6 h,34.3%
same,MCV,6 h,62.5 fL
same,Mono,6 h,3.6%
same,Neu,6 h,19.2%
same,PT,6 h,12.1 s
same,Plat,6 h,127 x10_4/uL
same,RBC,6 h,649.8 x10_4/ul
same,Ret,6 h,7.3%
same,WBC,6 h,71.6 x10_2/uL
same,KIDNEY_L,6 h,0.9 g
same,KIDNEY_R,6 h,0.9 g
same,KIDNEY_TOTAL,6 h,1.8 g
same,LIVER,6 h,9.1 g
same,A/G,6 h,0.9
same,ALP,6 h,1398 IU/L
same,ALT,6 h,43 IU/L
same,AST,6 h,70.6 IU/L
same,BUN,6 h,9.6 mg/dL
same,CRE,6 h,0.2 mg/dL
same,Ca,6 h,11.1 mg/dL
same,Cl,6 h,107.4 meq/L
same,DBIL,6 h,0.024 mg/dL
same,GLC,6 h,183 mg/dL
same,IP,6 h,10.9 mg/dL
same,K,6 h,4.3 meq/L
same,LDH,6 h,60.8 IU/L
same,Na,6 h,141.6 meq/L
same,PL,6 h,156 mg/dL
same,RALB,6 h,2.7 g/dL
same,TBIL,6 h,0.046 mg/dL
same,TC,6 h,86.2 mg/dL
same,TG,6 h,71.2 mg/dL
same,TP,6 h,5.6 g/dL
same,gamma-GTP,6 h,1.4 IU/L
same,TERMINAL_BW,9 h,223.1 g
same,APTT,9 h,15.5 s
same,Bas,9 h,0%
same,Eos,9 h,1%
same,Fbg,9 h,302.2 mg/dL
same,Hb,9 h,14 g/dL
same,Ht,9 h,41%
same,Lym,9 h,80%
same,MCH,9 h,21.6 pg
same,MCHC,9 h,34.1%
same,MCV,9 h,63.4 fL
same,Mono,9 h,2.6%
same,Neu,9 h,15.8%
same,PT,9 h,12.3 s
same,Plat,9 h,110.9 x10_4/uL
same,RBC,9 h,646.6 x10_4/ul
same,Ret,9 h,7.6%
same,WBC,9 h,69.8 x10_2/uL
same,KIDNEY_L,9 h,0.9 g
same,KIDNEY_R,9 h,0.9 g
same,KIDNEY_TOTAL,9 h,1.8 g
same,LIVER,9 h,8.6 g
same,A/G,9 h,0.9
same,ALP,9 h,1255.2 IU/L
same,ALT,9 h,36.6 IU/L
same,AST,9 h,65.4 IU/L
same,BUN,9 h,12 mg/dL
same,CRE,9 h,0.2 mg/dL
same,Ca,9 h,11.1 mg/dL
same,Cl,9 h,107 meq/L
same,DBIL,9 h,0.02 mg/dL
same,GLC,9 h,194.2 mg/dL
same,IP,9 h,11.9 mg/dL
same,K,9 h,4 meq/L
same,LDH,9 h,58 IU/L
same,Na,9 h,143.4 meq/L
same,PL,9 h,150.2 mg/dL
same,RALB,9 h,2.6 g/dL
same,TBIL,9 h,0.046 mg/dL
same,TC,9 h,82.2 mg/dL
same,TG,9 h,60.4 mg/dL
same,TP,9 h,5.4 g/dL
same,gamma-GTP,9 h,1.2 IU/L
same,TERMINAL_BW,24 h,226.6 g
same,APTT,24 h,14.7 s
same,Bas,24 h,0%
same,Eos,24 h,0.8%
same,Fbg,24 h,286 mg/dL
same,Hb,24 h,13.5 g/dL
same,Ht,24 h,38.9%
same,Lym,24 h,78.2%
same,MCH,24 h,21.7 pg
same,MCHC,24 h,34.7%
same,MCV,24 h,62.6 fL
same,Mono,24 h,2.6%
same,Neu,24 h,17.8%
same,PT,24 h,12 s
same,Plat,24 h,117.7 x10_4/uL
same,RBC,24 h,621.8 x10_4/ul
same,Ret,24 h,6.6%
same,WBC,24 h,87.1 x10_2/uL
same,KIDNEY_L,24 h,1 g
same,KIDNEY_R,24 h,0.9 g
same,KIDNEY_TOTAL,24 h,1.9 g
same,LIVER,24 h,10.2 g
same,A/G,24 h,1
same,ALP,24 h,1725.4 IU/L
same,ALT,24 h,48 IU/L
same,AST,24 h,74.6 IU/L
same,BUN,24 h,16.2 mg/dL
same,CRE,24 h,0.2 mg/dL
same,Ca,24 h,11.4 mg/dL
same,Cl,24 h,104.8 meq/L
same,DBIL,24 h,0.024 mg/dL
same,GLC,24 h,187 mg/dL
same,IP,24 h,8.7 mg/dL
same,K,24 h,4.1 meq/L
same,LDH,24 h,79.8 IU/L
same,Na,24 h,142 meq/L
same,PL,24 h,144.6 mg/dL
same,RALB,24 h,2.7 g/dL
same,TBIL,24 h,0.034 mg/dL
same,TC,24 h,78 mg/dL
same,TG,24 h,75 mg/dL
same,TP,24 h,5.6 g/dL
same,gamma-GTP,24 h,1 IU/L
